Values quoted from earlier work as cited in patent US20230338417A1, “Improved Pharmaceutical Preparation” (priority 2020, published 2023).

Row | Compound | Acid dissociation constant as pKa at 298K
1 | [O-][Cl+2]([O-])O [chloric acid] | 0
2 | peroxochloric acid | approx. 6.2
